According to patent publication US6699854B2, “Anti-cancer compounds” (Cyclacel Limited, priority 2000, dated 2004):
Entries after “also recorded” stand apart in the source; their conditions may differ. Where two headings read alike, the source gives them in different places.

Columns and labels:
S6 = S6 kinase assay (kinase panel); format: biochemical; conditions: Table 1
CDK4/cyclin D1 = CDK4/cyclin D1 (Homo sapiens, UniProt P11802); assay: biochemical
SAPK2a = SAPK2a (Homo sapiens, UniProt Q16539); assay: SAPK2a kinase assay (kinase panel); format: biochemical; conditions: Table 1
SAPK2a, sequence (Q16539 whole entry, species assumed): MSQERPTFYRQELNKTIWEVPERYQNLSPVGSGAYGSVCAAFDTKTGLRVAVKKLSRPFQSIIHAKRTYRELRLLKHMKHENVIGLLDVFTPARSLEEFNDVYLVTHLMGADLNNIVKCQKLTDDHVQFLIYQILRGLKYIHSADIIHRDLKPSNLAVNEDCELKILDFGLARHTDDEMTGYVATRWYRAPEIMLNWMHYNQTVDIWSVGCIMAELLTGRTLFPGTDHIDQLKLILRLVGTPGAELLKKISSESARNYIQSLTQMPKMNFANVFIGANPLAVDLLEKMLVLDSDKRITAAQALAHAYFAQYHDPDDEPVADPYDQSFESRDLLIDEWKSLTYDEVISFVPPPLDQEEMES

ERK-2 = ERK-2 (Homo sapiens, UniProt P28482); assay: ERK-2 kinase assay (kinase panel); format: biochemical; conditions: Table 1
ERK-2, sequence (P28482 whole entry, species assumed): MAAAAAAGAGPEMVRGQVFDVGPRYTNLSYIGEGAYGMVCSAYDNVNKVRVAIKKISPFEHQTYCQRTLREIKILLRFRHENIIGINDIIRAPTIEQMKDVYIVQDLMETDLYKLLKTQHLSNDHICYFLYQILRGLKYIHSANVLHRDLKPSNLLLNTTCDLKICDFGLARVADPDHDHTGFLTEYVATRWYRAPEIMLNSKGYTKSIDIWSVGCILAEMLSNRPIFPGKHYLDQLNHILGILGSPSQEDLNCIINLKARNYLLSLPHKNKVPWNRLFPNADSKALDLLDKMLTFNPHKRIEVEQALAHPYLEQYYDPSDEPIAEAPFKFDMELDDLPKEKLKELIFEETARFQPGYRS

CDK2/cyclin E = molecular target: T1, CDK2/cyclin E (Homo sapiens, UniProt P24941); assay: CDK2/cyclin E kinase assay (GST-Rb phosphorylation); format: biochemical;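 note: enzyme source: His-tagged CDK2/cyclin E co-expressed in Sf9 insect cells via baculovirus, then purified by metal-chelate chromatography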
T1 construct: His; made in house; host or cells: Sf9 insect cells (baculovirus)

PKCa = molecular target: T2, PKCa (Homo sapiens, UniProt P17252); assay: PKCα kinase assay (Histone 3 phosphorylation); format: biochemical; conditions: Table 1
T2 construct: 6×His (C); made in house; host or cells: Sf9 insect cells (baculovirus)
Experimental: PKCα kinase activity may be measured by the incorporation of radio-labeled phosphate in Histone 3, as described. The reaction mixture (total volume 65 μl) consist of 50 mM Tris-HCl, 1 mM Calcium acetate, 3 mM DTT, 0.03 mg/ml Phosphatidylserine, 2.4 μg/ml PMA, 0.04% NP40, 12 mM Mg/Cl, purified PKCα-100 ng, Histone 3, 0.2 mg/ml, 100 μM ATP, 0.2 μCi {γ-^32P}-ATP. The reaction is carried over 15 min at 37° C. in microplate shaker and is stopped by adding 10 μl 75 mM orthophosphoric acid and placing the plate on ice. 50 μl of the reaction mixture is transferred onto P81 filterplate and after washing off the free radioactive phosphate (3 times with 200 μl 75 mM orthophosphoric acid per well) 50 μl of scintillation liquid (Microscint 40) were added to each well and the radioactivity is measured on Scintillation counter (Topcount, HP).

CDK1/cyclin B = molecular target: T3, CDK1/cyclin B (Homo sapiens, UniProt P06493); assay: CDK1/cyclin B kinase assay (GST-Rb phosphorylation); format: biochemical; conditions: Table 1
T3 construct: His; made in house; host or cells: Sf9 insect cells (baculovirus)
T3 sequence (P06493 whole entry, species assumed): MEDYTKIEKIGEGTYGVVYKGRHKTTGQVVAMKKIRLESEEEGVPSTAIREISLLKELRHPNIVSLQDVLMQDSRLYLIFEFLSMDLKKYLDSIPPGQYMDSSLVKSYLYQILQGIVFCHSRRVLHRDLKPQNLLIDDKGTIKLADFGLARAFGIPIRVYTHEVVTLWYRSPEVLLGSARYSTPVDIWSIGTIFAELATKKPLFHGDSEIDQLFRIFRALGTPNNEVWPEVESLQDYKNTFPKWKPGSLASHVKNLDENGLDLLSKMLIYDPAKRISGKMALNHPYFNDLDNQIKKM
T3 sequence (P14635 whole entry partner, species assumed): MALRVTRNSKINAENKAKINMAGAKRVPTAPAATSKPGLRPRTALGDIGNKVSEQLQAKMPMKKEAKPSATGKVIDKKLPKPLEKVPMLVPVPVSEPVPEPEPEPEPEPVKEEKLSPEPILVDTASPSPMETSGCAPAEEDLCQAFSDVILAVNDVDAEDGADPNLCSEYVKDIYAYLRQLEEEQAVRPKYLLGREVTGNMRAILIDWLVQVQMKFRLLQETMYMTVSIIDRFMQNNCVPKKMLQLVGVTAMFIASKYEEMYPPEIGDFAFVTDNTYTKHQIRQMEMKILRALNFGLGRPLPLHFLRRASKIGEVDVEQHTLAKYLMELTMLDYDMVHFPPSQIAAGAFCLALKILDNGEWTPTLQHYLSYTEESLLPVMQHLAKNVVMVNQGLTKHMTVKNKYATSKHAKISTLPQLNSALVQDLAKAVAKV

AGS = assay: 72-h MTT cytotoxicity assay, AGS; format: cell-based; conditions: Homo sapiens, read-out: 72-h Cytotoxicity IC 50 AGS, Table 3, 72-h MTT
Experimental: (§1) Selected compounds from the above examples were subjected to a standard cellular proliferation assay using a range of different human tumour cell lines. Standard 72-h MTT (thiazolyl blue; 3-{4,5-dimethylthiazol-2-yl}-2,5-diphenyltetrazolium bromide) assays were performed (Haselsberger, K.; Peterson, D. C.; Thomas, D. G.; Darling, J. L. Anti Cancer Drugs 1996, 7, 331-8; Loveland, B. E.; Johns, T. G.; Mackay, I. R.; Vaillant, F.; Wang, Z. X.; Hertzog, P. J. Biochemistry International 1992, 27, 501-10). Human tumour cell lines were obtained from the ATCC (American Type Culture Collection, 10801 University Boulevard, Manessas, Va. 20110-2209, USA).

MCF-7 = assay: 72-h MTT cytotoxicity assay, MCF-7; format: cell-based; conditions: Homo sapiens, MCF7, read-out: 72-h Cytotoxicity IC 50 MCF-7; Table 3, 72-h MTT
Experimental: as §1

HeLa = assay: 72-h MTT cytotoxicity assay, HeLa; format: cell-based; conditions: Homo sapiens, read-out: 72-h Cytotoxicity IC 50 HeLa, Table 3, 72-h MTT
Experimental: as §1

Saos-2 = assay: 72-h MTT cytotoxicity assay, Saos-2; format: cell-based; conditions: Homo sapiens, SAOS-2, read-out: 72-h Cytotoxicity IC 50 Saos-2; Table 3, 72-h MTT
Experimental: as §1

DU145 = assay: 72-h MTT cytotoxicity assay, DU145; format: cell-based; conditions: Homo sapiens, DU-145, read-out: 72-h Cytotoxicity IC 50 DU145; Table 3, 72-h MTT
Experimental: as §1

A549 = assay: 72-h MTT cytotoxicity assay, A549; format: cell-based, human; conditions: Homo sapiens
Experimental: as §1

[1] = tested on: Human osteosarcoma tumour cells (Saos-2); assay: Mitotic arrest and apoptosis by phase-contrast microscopy; format: cell-based; conditions: Saos-2 cells, 1 μM, 48 h
Experimental: Human osteosarcoma tumour cells (Saos-2) were treated with 1 μM of compound 28 for 48 h. […] Compound 28-induced accumulation of mitotic cells was further quantified using mitotic index HitKit (Cellomix).

A549 cells = assay: Mitotic index HitKit (Cellomix); format: cell-based, human; conditions: toxicity above this concentration
From the text: The effect of compound 28 on the mitotic index was studied using mitotic index HitKit (Cellomix). Vinblastine was used as control in the experiments.
Above this concentration a decrease in the number of mitotic cells is observed which correlates with a decrease in the total number of cells.

[2] = tested on: Human lung carcinoma cells (A549); assay: Induction of programmed cell death (cytoplasmic vacuolation); format: cell-based; conditions: 10 μM, 16 h
Experimental: In addition to the induction of apoptosis some of the compounds of the invention are capable of inducing forms of programmed cell death that is distinct from apoptosis by the criteria of morphology. Human lung carcinoma cells (A549) were treated for 16 h with 10 μM compound 28.

human tumour cell lines = assay: Cell-based assays (anti-proliferative)
From the text: These assays including methods for their performance are described in more detail in Example 23. Using such cell line and enzymes assays it may be determined whether a compound is anti-proliferative in the context of the present invention.
as §1

[3] = A549, 72 h, read-out: 72-h Cytotoxicity IC 50 A549, Table 3, 72-h MTT
[4] = Table 4, additional data for cytotoxicity assay using the A549 cell line, read-out: A549

CDK4/cyclin D1, sequence (P11802 whole entry, species assumed): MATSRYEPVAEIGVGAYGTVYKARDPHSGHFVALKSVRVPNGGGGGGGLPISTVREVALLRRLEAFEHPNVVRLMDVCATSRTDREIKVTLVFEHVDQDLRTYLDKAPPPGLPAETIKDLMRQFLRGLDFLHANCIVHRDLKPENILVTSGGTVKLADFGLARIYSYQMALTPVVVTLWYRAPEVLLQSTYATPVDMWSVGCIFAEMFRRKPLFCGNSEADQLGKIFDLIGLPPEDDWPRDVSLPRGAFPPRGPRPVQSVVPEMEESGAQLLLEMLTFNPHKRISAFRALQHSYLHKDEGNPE
CDK4/cyclin D1, sequence (P24385 whole entry partner, species assumed): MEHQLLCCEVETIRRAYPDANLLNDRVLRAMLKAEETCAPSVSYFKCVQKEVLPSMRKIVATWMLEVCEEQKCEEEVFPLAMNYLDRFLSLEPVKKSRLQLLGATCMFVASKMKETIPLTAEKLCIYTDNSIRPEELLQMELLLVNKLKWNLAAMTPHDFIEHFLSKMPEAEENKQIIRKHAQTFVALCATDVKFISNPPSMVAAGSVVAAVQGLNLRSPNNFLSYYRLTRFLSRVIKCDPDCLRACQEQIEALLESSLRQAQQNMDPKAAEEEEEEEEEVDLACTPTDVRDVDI

Cc1nc(C)c(-c2ccnc(Nc3ccc(Cl)cc3)n2)s1 [Compound 6, (4-Chloro-phenyl)-{4-(2,4-dimethyl-thiazol-5-yl)-pyrimidin-2-yl}-amine]
IC50 (S6): > 20 µM
IC50 (CDK4/cyclin D1): 0.5 ± 0.5 µM
IC50 (SAPK2a): > 20 µM
IC50 (ERK-2): > 20 µM
IC50 (CDK2/cyclin E; CDK2/cyclin E, Table 2, further results for CDK2/cyclin E inhibition): 5 ± 9 µM
IC50 (CDK2/cyclin E; Kinase assay IC50 CDK2/cyclin E, Table 1): 9 ± 12 µM
IC50 (PKCa): > 20 µM
IC50 (CDK1/cyclin B): > 20 µM

Cc1nc(C)c(-c2ccnc(Nc3cccc([N+](=O)[O-])c3)n2)s1 [Compound 12, {4-(2,4-Dimethyl-thiazol-5-yl)-pyrimidin-2-yl}-(3-nitro-phenyl)-amine]
IC50 (S6): > 20 µM
IC50 (SAPK2a): > 20 µM
IC50 (ERK-2): > 20 µM
IC50 (AGS): 1 ± 0.2 µM
IC50 (MCF-7): 1.7 ± 0.1 µM
IC50 (HeLa): 1.2 ± 0.2 µM
IC50 (PKCa): > 20 µM
IC50 (Saos-2): 1.4 ± 0.3 µM
IC50 (CDK1/cyclin B): 0.1 µM
IC50 (DU145): 1 ± 0.1 µM
IC50 (A549; [3]): 1.5 ± 0.3 µM
IC50 (A549; [4]): 0.2 µM

Cc1nc(C)c(-c2ccnc(Nc3ccc(F)cc3)n2)s1 [Compound 21, {4-(2,4-Dimethyl-thiazol-5-yl)-pyrimidin-2-yl}-(4-fluoro-phenyl)-amine]
IC50 (S6): 1 µM
IC50 (SAPK2a): > 20 µM
IC50 (ERK-2): 2.5 µM
IC50 (AGS): 4.2 ± 0.3 µM
IC50 (MCF-7): 9.9 ± 0.4 µM
IC50 (HeLa): 3.2 ± 0.8 µM
IC50 (PKCa): > 20 µM
IC50 (Saos-2): 8.5 ± 1.6 µM
IC50 (CDK1/cyclin B): 0.2 µM
IC50 (DU145): 4.3 ± 0.2 µM
IC50 (A549; [3]): 5.4 ± 0.4 µM
IC50 (A549; [4]): 6.3 µM

Cc1nc(C)c(-c2ccnc(Nc3ccc(C(F)(F)F)cc3)n2)s1 [Compound 28, {4-(2,4-Dimethyl-thiazol-5-yl)-pyrimidin-2-yl}-(4-trifluoromethyl-phenyl)-amine]
mitotic arrest and induction of apoptosis [1]: mitotic arrest and induction of apoptosis; also recorded: accumulation of mitotic cells and appearance of apoptotic cells was observed
maximum percentage of mitotic cells (A549 cells; at a concentration of 4.4 μM, untreated wells […]): 17%
IC50 (A549; [4]): 3.5 µM
induction of programmed cell death, cytoplasmic vaculation [2]: Extensive cytoplasmic vaculation is observed

Cc1nc(C)c(-c2ccnc(Nc3ccc(Br)cc3)n2)s1 [Compound 31, (4-Bromo-phenyl)-{4-(2,4-dimethyl-thiazol-5-yl)-pyrimidin-2-yl}-amine]
melting point: 173 to 175 °C
IC50 (CDK2/cyclin E; Table 2, further results for CDK2/cyclin E inhibition, read-out: CDK2/cyclin E): 0.2 µM
IC50 (A549; [4]): 0.3 ± 0.05 µM

Cc1nc(C)c(-c2ccnc(Nc3ccc(I)cc3)n2)s1 [Compound 34, {4-(2,4-Dimethyl-thiazol-5-yl)-pyrimidin-2-yl}-(4-iodo-phenyl)-amine]
anti-proliferative effect (in words) (human tumour cell lines): even more effective anti-proliferative agent
IC50 (A549; [4]): 0.02 µM

CC[C@]1(O)C[C@@H]2CN(CCc3c([nH]c4ccccc34)[C@@](C(=O)OC)(c3cc4c(cc3OC)N(C)[C@H]3[C@@](O)(C(=O)OC)[C@H](OC(C)=O)[C@]5(CC)C=CCN6CC[C@]43[C@@H]65)C2)C1 [Vinblastine, reference compound]
maximum percentage of mitotic cells (A549 cells; at a concentration of 22 nM): 31%
